According to patent US20110021541A1, “INHIBITORS OF HUMAN PHOSPHATIDYL-INOSITOL 3-KINASE DELTA” (priority 2007, published 2011):

Test system: basophils
Assay: Basophil histamine release assay
Assay type: cell-based
Settings: highest concentration (10,000 nM)
Experimental: Assessment of the effect of a compound of the invention on basophil function is tested using a conventional histamine release assay, generally in accordance with the method described in Miura et al., J Immunol, 162:4198-206 (1999). Briefly, enriched basophils are preincubated with test compounds at several concentrations from 0.1 nM to 1,000 nM for 10 min at 37° C. Then, polyclonal goat antihuman IgE (0.1 μg/mL) or fMLP is added, and allowed to incubate for an additional 30 min Histamine released into the supernatant is measured using an automated fluorometric technique.

| SMILES | inhibition at 10 µM |
| --- | --- |
| O=c1cc(N2CCOCC2)oc2c(-c3ccccc3)cccc12 [LY294002] | ~100% |

Target: T1, PI3Kδ (Homo sapiens, UniProt O00329)
T1 construct: FLAG; His tag (vector pFastbac HTb); made in house; host or cells: Sf21 insect cells (baculovirus, BAC-TO-BAC HT)
Assay: PI3Kδ biochemical assay (HTS and selectivity assay protocol, [32P]ATP / PIP2 liposomes)
Settings: Table 1, in vitro activity data for selected compounds; read-out: In Vitro I-50
Experimental: The 3× substrate for the HTS contained 0.6 mM Na2ATP, 0.10 mCi/mL γ-[^32P]ATP (NEN, Pittsburgh, Pa.), 6 μM PIP2/PS liposomes (Avanti Polar Lipids, Inc., […].), in 20 mM HEPES, pH 7.4.
Subsequent selectivity assays were done similarly using the same 3× substrate stocks except they contained 0.05 mCi/mL γ[^32P]ATP and 3 mM PIP2. Subsequent selectivity assays also used the same 3× enzyme stocks, except they now contained 3 nM of any given PI3K isoform.
For all selectivity assays, the test compounds were weighed out and dissolved into 10-50 mM stocks in 100% DMSO (depending on their respective solubilities) and stored at −20° C. Compounds were thawed (to room temperature or 37° C.), diluted to 300 μM in water from which a 3-fold dilution series into water was done. From these dilutions, 20 μL was added into the assay wells alongside water blanks used for the enzyme (positive) control and the no enzyme (background) control.

T1 sequence (O00329 whole entry): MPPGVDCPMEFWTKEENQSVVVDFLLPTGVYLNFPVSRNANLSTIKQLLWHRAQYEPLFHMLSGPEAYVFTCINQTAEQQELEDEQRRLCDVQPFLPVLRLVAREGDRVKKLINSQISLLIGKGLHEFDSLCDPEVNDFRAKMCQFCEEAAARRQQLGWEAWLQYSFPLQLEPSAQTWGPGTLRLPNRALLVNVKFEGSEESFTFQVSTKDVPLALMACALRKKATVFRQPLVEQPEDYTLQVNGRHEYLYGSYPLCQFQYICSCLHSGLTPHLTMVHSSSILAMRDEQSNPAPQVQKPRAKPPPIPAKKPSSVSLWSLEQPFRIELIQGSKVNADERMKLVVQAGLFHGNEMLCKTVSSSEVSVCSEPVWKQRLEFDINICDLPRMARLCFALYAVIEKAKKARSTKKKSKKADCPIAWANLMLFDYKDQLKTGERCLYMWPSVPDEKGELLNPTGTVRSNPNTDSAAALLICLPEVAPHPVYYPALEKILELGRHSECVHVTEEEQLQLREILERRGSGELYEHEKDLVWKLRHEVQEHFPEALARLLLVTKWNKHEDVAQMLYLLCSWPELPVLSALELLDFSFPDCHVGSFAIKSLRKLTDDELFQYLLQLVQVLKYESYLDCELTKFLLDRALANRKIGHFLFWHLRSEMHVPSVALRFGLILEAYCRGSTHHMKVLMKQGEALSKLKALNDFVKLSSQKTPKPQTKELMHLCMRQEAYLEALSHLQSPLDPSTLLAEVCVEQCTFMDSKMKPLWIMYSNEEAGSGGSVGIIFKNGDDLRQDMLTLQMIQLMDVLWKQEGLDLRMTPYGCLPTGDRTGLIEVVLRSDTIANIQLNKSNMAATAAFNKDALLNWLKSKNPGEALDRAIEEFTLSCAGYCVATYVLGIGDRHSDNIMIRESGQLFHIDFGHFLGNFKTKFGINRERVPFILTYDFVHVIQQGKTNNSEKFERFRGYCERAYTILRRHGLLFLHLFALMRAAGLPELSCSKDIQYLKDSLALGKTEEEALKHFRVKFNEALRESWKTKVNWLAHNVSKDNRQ
T1 sequence (P27986 whole entry partner): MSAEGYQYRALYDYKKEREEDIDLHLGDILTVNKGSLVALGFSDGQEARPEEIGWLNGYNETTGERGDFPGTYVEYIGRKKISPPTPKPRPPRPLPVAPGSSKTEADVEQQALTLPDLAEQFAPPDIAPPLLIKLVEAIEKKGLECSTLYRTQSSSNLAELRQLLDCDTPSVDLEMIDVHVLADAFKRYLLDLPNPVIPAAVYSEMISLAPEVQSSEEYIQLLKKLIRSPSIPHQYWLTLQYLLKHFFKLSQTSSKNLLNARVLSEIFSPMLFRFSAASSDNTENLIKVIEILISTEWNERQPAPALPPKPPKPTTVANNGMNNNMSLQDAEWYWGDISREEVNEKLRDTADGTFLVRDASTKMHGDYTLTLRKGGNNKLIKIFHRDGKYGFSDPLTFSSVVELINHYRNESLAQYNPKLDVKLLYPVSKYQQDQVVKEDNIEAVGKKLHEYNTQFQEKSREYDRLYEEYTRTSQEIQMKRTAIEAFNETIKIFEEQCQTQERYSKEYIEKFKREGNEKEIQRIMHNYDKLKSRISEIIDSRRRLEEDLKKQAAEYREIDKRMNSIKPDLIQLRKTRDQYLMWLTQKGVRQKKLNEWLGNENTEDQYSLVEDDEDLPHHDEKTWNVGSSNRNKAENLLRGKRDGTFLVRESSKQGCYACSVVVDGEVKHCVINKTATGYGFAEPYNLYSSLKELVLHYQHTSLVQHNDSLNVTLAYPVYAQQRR

| SMILES | IC50 |
| --- | --- |
| CC(Sc1ncnc2[nH]cnc12)c1nc2c(c(Br)nn2C)c(=O)n1-c1ccccc1 (stereo not drawn) [Compound 2, 3-Bromo-1-methyl-5-phenyl-6-[1-(9H-purin-6-ylsulfanyl)-ethyl]-1,5-dihydro-pyrazolo[3,4-d]pyrimidin-4-one] | 6000 nM |
| CC(c1nc2cccnc2c(=O)n1-c1ccccc1)n1cnc2c(N)ncnc21 (stereo not drawn) [Compound 11] | 665 nM |

Continued, values first:

| IC50 | SMILES |
| --- | --- |
| 1200 nM | Cc1noc2nc(CSc3ncnc4[nH]cnc34)n(-c3ccccc3)c(=O)c12 [Compound 4, 3-Methyl-5-phenyl-6-(9H-purin-6-ylsulfanylmethyl)-5H-isoxazolo[5,4-d]pyrimidin-4-one] |
| 665 nM | CC(c1nc2c(c(Br)nn2C)c(=O)n1-c1ccccc1)n1cnc2c(N)ncnc21 (stereo not drawn) [Compound 1, 6-[1-(6-Amino-purin-9-yl)-ethyl]-3-bromo-1-methyl-5-phenyl-1,5-dihydro-pyrazolo[3,4-d]pyrimidin-4-one] |
| 6400 nM | Cc1noc2nc(Cn3cnc4c(N)ncnc43)n(-c3ccccc3)c(=O)c12 [Compound 5, 6-(6-Amino-purin-9-ylmethyl)-3-methyl-5-phenyl-5H-is oxazolo[5,4-d]pyrimidin-4-one] |
